The numbers were not newly measured in patent US10272077B2, “Piperidinone carboxamide azaindane CGRP receptor antagonists” (Merck Sharp & Dohme Corp., priority 2010, dated 2019), which cites them from elsewhere.

Ends that are not written are not given here.

The conditions of series [1]: control group (Petersen et al. 2005).
The conditions of series [2]: marmoset (Doods et al. 2000).
The conditions of series [3]: rats, prior administration (Williamson et al. 1997).
For series [4] the following is noted: rat (Escott et al. 1995).

As to `NCCCC[C@H](NC(=O)[C@@H](Cc1cc(Br)c(O)c(Br)c1)NC(=O)N1CCC(N2Cc3ccccc3NC2=O)CC1)C(=O)N1CCN(c2ccncc2)CC1` [BIBN4096BS], in series [1], the “prevention of headache induced by CGRP infusion” value is given as “able to prevent headache induced by CGRP infusion”. For the same compound, in series [2], the “effect on increase in facial blood flow” value is “could be blocked”. Moreover, the “treatment of acute attacks of migraine” value (clinical trials (Olesen et al. 2004)) is listed as “effective in treating acute attacks of migraine”.
As to `O=C(N[C@@H]1CC[C@@H](c2cccc(F)c2F)CN(CC(F)(F)F)C1=O)N1CCC(n2c(=O)[nH]c3ncccc32)CC1` [telcagepant], for the setting “phase III clinical trials, orally bioavailable”, the antimigraine effectiveness result is recorded as “shown antimigraine effectiveness”.
As for “CGRP(8-37) (VTHRLAGLLSRSGGVVKNNFVPTNVGSKAF; ends and bridges not checked; UniProt P06881 90-119, looked up, fragment) [a peptide CGRP receptor antagonist]”, the “effect on increase of middle meningeal artery diameter” value in series [3] is recorded as “blocked”. Also, in series [4], the “effect on increased facial blood flow” value is given as “inhibited”.
